The record followed here is article PMC10384246, “Discovery of New Uracil and Thiouracil Derivatives as Potential HDAC Inhibitors” (Pharmaceuticals, 2023).

Several values for one entry are separate records, joined by “and”; a condition that tells them apart may be missing. Equal values may be shown once.

One series in a line: in vitro. The conditions noted are these: human.
In series [1] the test system is HepG2 (human liver carcinoma cell line). Briefly: MTT anti-proliferative assay, HepG2. Type of series: cell-based. Particulars: HepG2, mean of at least three experiments, read-out: Cytotoxicity IC50 HepG-2. The procedure: (§1) Sorafenib was used as a reference drug.
(§2) Anti-proliferative activity activities were tested using MTT assay as described in Supplementary Materials. […]
(§3) S2.1. In vitro anti-proliferative activities
(§4) The in vitro antiproliferative activities of all the synthesized compounds against three human tumor cell lines namely, MCF-7 (human breast cancer cell line), HepG2 (human liver […]
(§5) in the literature, using MTT assay protocol. Sorafenib was used in this test as a positive control.
(§6) The anti-proliferative activity was assessed quantitatively as follows.
(§7) Human cancer cell lines were seeded in 96-well plates at a density of 3-8 × 10^3 cells/well.
(§8) Next, the cells were incubated for 12 h in a 5% CO2 incubator at 37 °C. Then, for each well, the growth medium was exchanged with 0.1 ml of fresh medium containing graded concentrations of the test compounds or equal DMSO. Then 10 μl MTT solution ([…]) was added to each well, and the cells were incubated for additional 4 h. The crystals of MTT-formazan were dissolved in 100 μl of DMSO; the absorbance of each well was measured at 490 nm using an automatic ELISA reader system (TECAN, CHE). The IC50 values were calculated using the nonlinear regression fitting models (Graph Pad, Prism Version 5). The data represented the mean of three independent experiments in triplicate and were expressed as means ± SD. The IC50 value was […]
(§9) defined as the concentration at which 50% of the cells could survive. […]
On the technique in general: Tetrazolium dyes change colour on reduction, which living cells bring about.

Series [2] relates to MCF-7 (human breast cancer cell line). Briefly: MTT anti-proliferative assay, MCF-7. Type of series: cell-based. The conditions noted are these: MCF7, MCF-7, mean of at least three experiments, read-out: Cytotoxicity IC50 MCF-7. The procedure:
as §1, §2, §3, §4, §5, §6, §7, §8, §9

Another series has as its target HDAC1 (Homo sapiens, UniProt Q13547). Description: In vitro HDAC1 inhibitory assay. The series is classed as biochemical.
In the next series the test system is caspase-8. Briefly: qRT-PCR caspase-8 level. The series is classed as cell-based, human. Particulars: HCT-116 cells, 72 h, versus untreated cells. (Quantitative PCR measures a nucleic acid by following its amplification.)
In another series the target is HDAC4 (Homo sapiens, UniProt P56524). Briefly: In vitro HDAC4 inhibitory assay. Type of series: biochemical.
The subject of series [3] is colorectal carcinoma (HCT-116). Description: MTT anti-proliferative assay, HCT-116. Type of series: cell-based. Particulars: Homo sapiens, HCT-116, read-out: Cytotoxicity IC50 HCT-116. The procedure: as §1, §2, §3, §4, §5, §6, §7, §8, §9
Another series relates to caspase-3. Description: qRT-PCR caspase-3 level. The series is classed as cell-based, human. The conditions noted are these: HCT-116 cells, 72 h, versus untreated cells.
The subject of series [4] is HCT-116 cells. Briefly: Flow cytometry cell cycle analysis. Type of series: cell-based, human. The conditions noted are these: 78 µM, 72 h, share of cells in phase. The procedure:
The effect of the most promising compound, 5m, against the cell cycle was tested in HCT116 cells.
Cell cycle analysis was performed for compound 5m as described in Supplementary Materials. […]
defined as the concentration at which 50% of the cells could survive. The results were expressed […]
S2.2. In-vitro DNA-Flow cytometric (cell cycle) analysis. […]
h. Then, the tested cells were collected by trypsinization and washed in PBS. Ice - cold absolute ethanol was used for fixation of the collected cells. The cells were stained with Cycle TESTTM PLUS DNA Reagent Kit (BD Biosciences, San Jose, CA) accord ing to the manufacturer's instructions. Cell -cycle distribution was evaluated using a flow cytometer.
(§10) S2.3. Annexin V - FITC apoptosis assay.
(§11) To detect the apoptosis induced by compound 5m , HCT-116 cells were seeded and incubated overnight and then treated with compound 5m at concentrations of 78 µM for 72 h. DMSO was chosen as the negative control. After that, the cells were collected and washed with PBS two successive times with centrifugation. Apoptosis detection kit (BD Biosciences, San Jose, CA) was used in this test. According to the manufacturer's protocol the cells were stained by Annexin V-FITC and propidium iodide (PI) in the binding b uffer for 20min at room temperature in the dark. Using a flow cytometer, Annexin V-FITC and PI binding were analyzed. Flowjo software was used to analyze the frequencies in all quadrants.
(§12) S2.4. Apoptotic effect of compound 5m treatment. […]
(§13) cells treated with compound 5m. […]

Series [5] relates to HCT-116 cells. Briefly: Annexin-V/propidium iodide apoptosis assay. The series is classed as cell-based, human. The conditions noted are these: 78 µM, 72 h. The procedure: The tested cells were subjected to 78 µM from compound 5m with an incubation time of 72 h.
The apoptotic effect of the compound 5m was tested as described in Supplementary data. Quantitative Real-Time Reverse-Transcriptase PCR (qRT-PCR) technique Using qRT-PCR, the effect of compound 5m on the expression of cleaved caspase-3 and caspase-8 was determined (Supplementary Materials). […]
as §10, §11, §12, §13

HDAC1, sequence (Q13547 whole entry): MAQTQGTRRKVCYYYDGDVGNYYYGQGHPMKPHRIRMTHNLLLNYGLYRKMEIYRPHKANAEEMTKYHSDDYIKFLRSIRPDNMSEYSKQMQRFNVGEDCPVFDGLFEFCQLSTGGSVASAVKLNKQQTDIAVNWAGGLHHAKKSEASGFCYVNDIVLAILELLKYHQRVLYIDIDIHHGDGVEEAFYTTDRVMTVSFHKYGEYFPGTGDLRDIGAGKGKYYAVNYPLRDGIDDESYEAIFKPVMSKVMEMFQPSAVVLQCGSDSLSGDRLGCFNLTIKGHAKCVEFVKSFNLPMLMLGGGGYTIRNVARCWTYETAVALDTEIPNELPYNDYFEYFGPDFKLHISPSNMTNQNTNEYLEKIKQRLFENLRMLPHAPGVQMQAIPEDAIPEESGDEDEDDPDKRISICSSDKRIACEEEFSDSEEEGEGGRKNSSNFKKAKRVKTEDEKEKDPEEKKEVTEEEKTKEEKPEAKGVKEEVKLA
HDAC4, sequence (P56524 whole entry): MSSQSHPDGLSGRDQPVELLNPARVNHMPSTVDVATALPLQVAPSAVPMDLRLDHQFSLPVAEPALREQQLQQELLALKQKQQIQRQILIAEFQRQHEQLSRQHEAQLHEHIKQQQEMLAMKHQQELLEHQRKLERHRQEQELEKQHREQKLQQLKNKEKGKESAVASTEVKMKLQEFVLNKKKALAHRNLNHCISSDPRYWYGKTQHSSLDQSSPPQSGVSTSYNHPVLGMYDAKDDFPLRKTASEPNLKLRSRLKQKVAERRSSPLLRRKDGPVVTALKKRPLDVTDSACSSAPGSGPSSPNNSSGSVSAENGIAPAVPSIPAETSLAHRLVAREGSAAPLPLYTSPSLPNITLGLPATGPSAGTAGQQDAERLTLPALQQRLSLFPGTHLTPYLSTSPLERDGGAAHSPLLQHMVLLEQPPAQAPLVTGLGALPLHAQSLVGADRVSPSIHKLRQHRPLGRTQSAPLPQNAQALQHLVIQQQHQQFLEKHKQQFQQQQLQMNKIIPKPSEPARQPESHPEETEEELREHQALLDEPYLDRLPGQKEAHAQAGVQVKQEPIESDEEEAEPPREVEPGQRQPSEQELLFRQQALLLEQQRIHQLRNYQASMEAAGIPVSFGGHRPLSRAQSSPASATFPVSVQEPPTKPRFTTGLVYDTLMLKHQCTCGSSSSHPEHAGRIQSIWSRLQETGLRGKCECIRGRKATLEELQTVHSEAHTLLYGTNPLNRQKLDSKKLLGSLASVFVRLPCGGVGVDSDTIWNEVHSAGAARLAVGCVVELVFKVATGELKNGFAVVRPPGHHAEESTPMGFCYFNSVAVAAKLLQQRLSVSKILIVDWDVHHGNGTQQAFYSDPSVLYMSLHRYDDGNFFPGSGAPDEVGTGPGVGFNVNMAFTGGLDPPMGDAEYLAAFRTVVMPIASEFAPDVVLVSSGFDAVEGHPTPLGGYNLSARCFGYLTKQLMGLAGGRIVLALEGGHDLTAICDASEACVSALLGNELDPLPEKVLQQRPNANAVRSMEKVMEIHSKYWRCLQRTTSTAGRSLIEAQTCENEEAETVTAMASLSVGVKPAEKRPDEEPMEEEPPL
Method for caspase-3: (§14) Quantitative Real Time Reverse-Transcriptase PCR technique (determination of caspase-3
(§15) The total RNA was extracted from the control and treated cells by using RNeasy mini kit
(§16) (Qiagen, Germany) according the manufacturer's protocol. Then, the isolated RNAs were
(§17) quantitatively and qualitatively assessed using a NanoDrop®1000 spectrophotometer (Thermo
(§18) Scientific, Wilmington, DE, USA). The RNA aliquots were preserved at - 80 °C till the next
(§19) Reverse transcription and quantification of caspase-3 and caspase-8 mRNA
expressions using qRT-PCR:
(§20) iScriptTM One-Step RT-PCR Kit with SYBR® Green kit (BIORAD Laboratories, USA) was used
(§21) for reverse transcription of total RNA and quantification of the targeted mRNA expressions in
(§22) single reaction tube. In depth, the complementary DNA (cDNA) was performed efficiently from
(§23) the isolated RNA using iScriptTM MMLV (Moloney Murine Leukemia Virus) reverse
(§24) transcriptase. While, the relative expression levels of caspase -3 and caspase-8 mRNA were
(§25) determined using 2X SYBR® Green RT -PCR Reaction Mix, containing iTaq TM DNA polymerase
(§26) and SYBR® Green I dye, on the basis of the manufacturer’s guidelines. GAPDH was used as
(§27) housekeeping gene for data normalization. The reaction Mix consisted of 10 μL of 2X SYBR®
(§28) Green RT-PCR Reaction Mix, 1 μl of forward primer, 1 μl of reverse primer, 1 μl of iScript […]
(§29) were determined by using the 2- ΔΔct method.
Method for caspase-8: as §14, §15, §16, §17, §18, §19
expressions using qRT-PCR:
as §20, §21, §22, §23, §24, §25, §26, §27, §28, §29

`CCCn1c(N)c(C(c2ccc(Cl)cc2)c2c(N)n(CCC)c(=O)[nH]c2=O)c(=O)[nH]c1=O` [Compound 5m, 5,5′-((4-Chlorophenyl)methylene)bis(6-amino-1-propylpyrimidine-2,4(1H,3H)-dione)] showed a melting point of 257 to 258 °C. Half-maximal inhibition in the series “in vitro” (IC50) required 65.7 ± 1.7 µM. For the same compound, the IC50 in [1] is 3.3 ± 0.56 µM. Also, the IC50 in series [2] was 52 ± 3.5 µM. Moreover, at HDAC1, it took 0.108 µM to reach half-maximal inhibition (IC50). Moreover, in the series with caspase-8, the “RT-PCR (Fold Change) Caspase-8” value was 2.5 Fold Change and 2.655 Fold Change. Besides, half-maximal inhibition against HDAC4 (IC50) was put at 6.14 µM. For the same compound, in series [3], the 50% inhibitory concentration (IC50) was 78 ± 2 µM. In addition, the “RT-PCR (Fold Change) Caspase-3” value with caspase-3 was 5 Fold Change and 4.891 Fold Change. In addition, in the series on HCT-116 cells [4], the “%G0–G1” value came out at 55.31%, the “%G2/M” value is 9.81% and the “%S” value came out at 34.88%. Further, the “Apoptotic effect, times/fold compared to control cells” value with HCT-116 cells [5] (37.59% versus 2.17% in control) was around 17. For the same compound, in the series with HCT-116 cells [5] (Annexin-V/PI), the “DNA Content (%) Early (early apoptosis)” value amounted to 22.36%, the “DNA Content (%) Late (late apoptosis)” value is reported as 13.14%, the “DNA Content (%) Total (apoptotic effect)” value worked out at 37.59% and the Necrosis is 2.09.

What is called IC50 is the concentration that inhibits the measured activity by half. What is called melting point is the temperature, or range, at which the solid turns liquid.
